The target of this assay is T1, mGluR^2 (Homo sapiens, UniProt Q14416).
T1 construct: expressed in transfected cells
As to the kind of experiment: [3H] LY341495 binding displacement at mGluR2. The conditions noted are these: cells expressing human mGluR subtypes, radioligand [3H] LY341495, read-out: Ki, reversal of [3H] LY341495 binding. From the text: (D. D. Schoepp, et al., Neuropharmacol., 1996, 35, 1661–1672 and 1997, 36, 1–11).
(LY341495 is described in Ornstein et al., J. Med. Chem., 1998, 41, 346–357 and J. Med. Chem., 1998, 41, 358 to 378).

Structures are written as SMILES.

T1 sequence (Q14416 19-872): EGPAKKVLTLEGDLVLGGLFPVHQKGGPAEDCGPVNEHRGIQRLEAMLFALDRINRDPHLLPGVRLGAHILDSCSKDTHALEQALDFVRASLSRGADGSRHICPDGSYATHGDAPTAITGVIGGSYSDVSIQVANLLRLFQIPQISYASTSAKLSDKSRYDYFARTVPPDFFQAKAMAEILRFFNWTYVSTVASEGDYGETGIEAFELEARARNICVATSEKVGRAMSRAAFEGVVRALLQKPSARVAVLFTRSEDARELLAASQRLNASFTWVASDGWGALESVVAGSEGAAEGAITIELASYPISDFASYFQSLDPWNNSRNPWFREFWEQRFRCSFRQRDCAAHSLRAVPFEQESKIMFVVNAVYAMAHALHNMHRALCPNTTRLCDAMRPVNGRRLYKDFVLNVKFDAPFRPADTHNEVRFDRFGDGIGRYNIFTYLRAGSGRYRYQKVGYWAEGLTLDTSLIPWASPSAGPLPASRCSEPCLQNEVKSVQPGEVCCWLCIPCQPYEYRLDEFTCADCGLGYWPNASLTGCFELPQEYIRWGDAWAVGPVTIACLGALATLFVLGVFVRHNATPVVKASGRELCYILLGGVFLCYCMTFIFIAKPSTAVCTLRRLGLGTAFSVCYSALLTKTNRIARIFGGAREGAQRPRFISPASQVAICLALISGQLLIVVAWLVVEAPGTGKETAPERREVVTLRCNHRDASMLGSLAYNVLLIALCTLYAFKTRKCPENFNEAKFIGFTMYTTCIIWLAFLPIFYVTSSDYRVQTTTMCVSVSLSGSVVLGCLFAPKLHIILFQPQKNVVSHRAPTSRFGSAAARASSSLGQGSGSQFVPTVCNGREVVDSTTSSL

For `N[C@@H](C(=O)O)[C@@H]1[C@H](COC(=O)Nc2ccccc2)[C@H]1C(=O)O` (racemic) [Example 1, (2SR,1′SR,2′RS,3′RS)-2-(3′-phenylcarbamoyloxymethyl-2′-carboxycyclopropyl)glycine], the Ki (as a rule, a dissociation constant, usually derived from enzyme kinetics or from competition with a known ligand) worked out at 285 nM.
